{"source": "patent US5714491A", "about": "“Peptidyl derivatives as metalloproteinase inhibitors” (Celltech Therapeutics Limited, priority 1993, dated 1998)", "key": {"Collagenase": {"molecular_target": "Collagenase", "assay": "Enzyme inhibition assay with fluorogenic peptide substrate, collagenase", "format": "biochemical", "details": "Ki (app) assumed to approximate true Ki", "protocol": "(§1) All enzyme assays to determine Ki values were performed using the peptide substrate Dnp-Pro-Leu-Gly-Leu-Trp-Ala-D-Arg-NH2. [M. Sharon Stock and Robert D. Gray, JBC 264, 4277-81, 1989]. The enzymes cleave at the Gly-Leu bond which can be followed fluorimetrically by measuring the increase in Trp fluorescence emission associated with the removal of the quenching dinitrophenol (Dnp) group.\n(§2) Essentially, enzyme (e.g. gelatinase, stromelysin, collagenase) at 0.08-2 nM; a range of inhibitor concentrations (0.1-50×Ki) and substrate (approx. 20 μm) are incubated overnight in 0.1M Tris/HCI buffer, pH 7.5, containing 0.1M NaCl, 10 mM CaCl2 and 0.05%. Brij 35 at either room temperature or 37° C. depending on the enzyme. The reaction is stopped by adjusting the pH to 4 using 0.1M sodium acetate buffer and the fluorescence read at an excitation wavelength of 280 nm and emission wavelength of 346 nm.\n(§3) Ki values can be established using the equation for tight-binding inhibition: [formula] where VO is the initial rate of reaction in the absence of inhibitor, Vi is the initial rate in the presence of inhibitor, [E] is the total enzyme concentration and [I] the total inhibitor concentration in the reaction mixture.\n(§4) For stromelysin and collagenasa, Ki (app) was assumed to approximate to the true Ki as [S]<<Km for the substrate hydrolysis. For gelatinase the Ki was determined by performing the analyses at several substrate concentrations. A plot of Ki (app) vs. [S] then gave the true Ki as the value of the y-axis intercept."}, "Gelatinase-72KD": {"molecular_target": "T1, Gelatinase-72KD (Homo sapiens, UniProt P08253)", "T1 sequence (P08253 110-660)": "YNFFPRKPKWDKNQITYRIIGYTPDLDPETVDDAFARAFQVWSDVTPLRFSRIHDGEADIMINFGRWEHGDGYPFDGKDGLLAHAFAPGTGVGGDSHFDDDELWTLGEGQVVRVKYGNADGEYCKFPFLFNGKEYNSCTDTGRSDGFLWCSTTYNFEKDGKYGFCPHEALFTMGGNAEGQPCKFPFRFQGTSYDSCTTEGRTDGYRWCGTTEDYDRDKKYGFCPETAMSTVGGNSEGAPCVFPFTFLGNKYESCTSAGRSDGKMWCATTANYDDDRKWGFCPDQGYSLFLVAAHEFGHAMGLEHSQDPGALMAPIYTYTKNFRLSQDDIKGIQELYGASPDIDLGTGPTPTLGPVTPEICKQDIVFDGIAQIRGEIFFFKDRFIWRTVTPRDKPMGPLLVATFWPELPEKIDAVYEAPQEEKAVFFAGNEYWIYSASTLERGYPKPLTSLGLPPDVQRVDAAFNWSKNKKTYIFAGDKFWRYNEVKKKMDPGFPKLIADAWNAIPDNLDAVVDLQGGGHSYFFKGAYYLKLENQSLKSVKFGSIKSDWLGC", "assay": "Enzyme inhibition assay with fluorogenic peptide substrate, gelatinase-72KD", "format": "biochemical", "details": "true Ki from plot of Ki (app) vs. [S]", "protocol": "as §1, §2, §3, §4"}, "Stromelysin-1": {"molecular_target": "Stromelysin-1 (Homo sapiens, UniProt P08254)", "sequence (P08254 100-477, species assumed)": "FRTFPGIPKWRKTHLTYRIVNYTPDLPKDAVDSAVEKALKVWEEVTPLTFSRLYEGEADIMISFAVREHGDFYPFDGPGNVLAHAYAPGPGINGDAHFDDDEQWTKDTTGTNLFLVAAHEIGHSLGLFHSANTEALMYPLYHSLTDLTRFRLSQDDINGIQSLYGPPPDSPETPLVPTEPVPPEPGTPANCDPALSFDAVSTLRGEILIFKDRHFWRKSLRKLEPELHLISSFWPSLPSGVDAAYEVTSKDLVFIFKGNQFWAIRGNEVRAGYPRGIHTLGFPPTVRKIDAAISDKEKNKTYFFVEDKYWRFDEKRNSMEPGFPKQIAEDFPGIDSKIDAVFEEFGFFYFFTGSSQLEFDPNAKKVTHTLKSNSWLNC", "assay": "Enzyme inhibition assay with fluorogenic peptide substrate, stromelysin-1", "format": "biochemical", "details": "Ki (app) assumed to approximate true Ki", "protocol": "as §1, §2, §3, §4"}, "gelatinase A (72K form)": {"molecular_target": "T2, gelatinase A (72K form) (Homo sapiens, UniProt P08253)", "T2 sequence (P08253 110-660)": "T1 sequence (P08253 110-660)", "assay": "Mouse pleural cavity assay (oral activity)", "format": "in vivo", "details": "administered orally, around 25 μm/Kg", "protocol": "The oral activity of the compounds according to the invention may be determined using the mouse pleural cavity assay described below. This assay measures the ability of compounds of the invention when adminstered orally to inhibit a subsequent inoculation of gelatinase into the mouse pleural cavity.\nA 2 ml solution of the test compound (for example around 25 μm/Kg) in an appropriate solvent (e.g. 50% polyethylene glycol (PG)) plus a variable proportion of dimethyl sulphoxide (DMSO) (if required) is administered orally. After an interval of up to 24 hrs, 0.4 ml of a mixture of an equal volume (2.2 ml) of the enzyme gelatinase A (72K form at a concentration of 20 nM) and radiolabelled [^14 C]-gelatin (at an approximate concentration of 10 μM i.e. 500 times molar excess) is injected into the pleural cavity and maintained at […]. […] The resulting TCA precipitate is then separated by centrifugation and radioactivity in each supernatant measured by scintillation counting. Results are expressed as a % inhibition of enzyme activity calculated by comparing the radioactivity measured for each test compound with a control value obtained by performing the same assay in the absence of a gelatinase inhibitor. […]"}}}
{"smiles": "CNC(=O)[C@H](NC(=O)[C@H](CCCc1ccc(Cl)cc1)CC(=O)NO)C(C)(C)SC", "note": "[Example 3a), [4-(N-Hydroxyamino)-2(R)-[3-(4-chlorophenyl)propyl]succinyl]-L-[S-(methyl)penicillamine]-N-methylamide]", "values": [{"measurement": "Ki", "setting": "Collagenase", "value": 26.3, "unit": "nM"}, {"measurement": "Ki", "setting": "Gelatinase-72KD", "value": 0.005, "unit": "nM"}, {"measurement": "Ki", "setting": "Stromelysin-1", "value": 5.3, "unit": "nM"}]}
{"smiles": "CC(C)(S)[C@@H](NC(=O)[C@H](CCCc1ccc(Cl)cc1)CC(=O)NO)C(N)=O", "note": "[Example 3b), [4-(N-Hydroxyamino)-2(R)-[3-(4-chlorophenyl)propyl]-1-succinyl]-L-penicillamine amide]", "values": [{"measurement": "Ki", "setting": "Collagenase", "value": 122, "unit": "nM"}, {"measurement": "Ki", "setting": "Gelatinase-72KD", "value": 0.027, "unit": "nM"}, {"measurement": "Ki", "setting": "Stromelysin-1", "value": 3.6, "unit": "nM"}, {"measurement": "% inhibition of enzyme activity", "setting": "gelatinase A (72K form)", "value": 100, "unit": "%"}]}
{"smiles": "CNC(=O)[C@H](NC(=O)[C@H](CCCc1ccc(Cl)cc1)CC(=O)NO)C(C)(C)S(C)(=O)=O", "note": "[Example 4, {4-(N-Hydroxyamino)-2(R)-[3-(4-chlorophenyl)propyl]succinyl}-L-[S-(methyl)penicillaminesulphone]-N-methylamide]", "values": [{"measurement": "Ki", "setting": "Collagenase", "value": 20.7, "unit": "nM"}, {"measurement": "Ki", "setting": "Gelatinase-72KD", "value": 0.005, "unit": "nM"}, {"measurement": "Ki", "setting": "Stromelysin-1", "value": 5.92, "unit": "nM"}]}
